Assay results: patent US20250275943A1, “COMPOSITION FOR CANCER DIAGNOSIS TARGETING TUMOR AND/OR TUMOR MICROENVIRONMENT AND USE THEREOF” (Korea University Research and Business Foundation, priority 2024, published 2025)
Read-outs that look alike come from different tables or passages of the source.

How the values were obtained:
[1] = mouse, in vivo
From the text: (§1) Each graph represents the fluorescence signal of each organ.

[2] = test system: A549 cancer cells, which do not express folate receptors, and H522 cancer cells, which express folate receptors; experiment: Fluorescent contrast observation of cancer cells with and without folate receptor expression; format: cell-based; conditions: A549 (no folate receptors) vs H522 (folate receptors); FIG. 5A, 5B
From the text: Accordingly, it was identified that FMK-2 had no cytotoxicity.

[3] = Mouse tissue staining experiment, fluorescence of extracted organs; conditions: normal mouse, organs extracted 4 hours after injection; FIG. 9
From the text: as §1

| Structure (SMILES) | fluorescence signal of each organ [1] | fluorescence expression in cancer cells depending on folate receptor expression [2] | fluorescence signal of each organ [3] |
| --- | --- | --- | --- |
| CC1(C)C(/C=C/C2=C(Cl)C(=C/C=C3/N(CCC(=O)NC4O[C@@H](CO)[C@H](O)[C@@H](O)[C@H]4O)c4ccc(S(=O)(=O)O)cc4C3(C)C)/CCC2)=[N+](CCC(=O)NC2O[C@H](CO)[C@@H](O)[C@H](O)[C@@H]2O)c2ccc(S(=O)(=O)O)cc21 (stereo partly drawn) [Compound 2, 2-((E)-2-((E)-2-chloro-3-(2-((E)-3,3-dimethyl-1-(3-oxo-3-(((3R,4R,5R,6S)-3,4,5-trihydroxy-6-(hydroxymethyl)tetrahydro-2H-pyran-2-yl)amino)propyl)-5-sulfoindolin-2-ylidene)ethylidene)cyclohex-1-en-1-yl)vinyl)-3,3-dimethyl-1-(3-oxo-3-(((3S,4S,5S,6R)-3,4,5-trihydroxy-6-(hydroxymethyl)tetrahydro-2H-pyran-2-yl)amino)propyl)-5-sulfo-3H-indol-1-ium] | overall signals were identified in all organs | expressed fluorescence in cancer cells regardless of whether folate receptors were expressed | – |
| CC1(C)C(/C=C/C2=C(SCCOCCOCCNC(=O)CCC(NC(=O)c3ccc(NCc4cnc5nc(N)nc(O)c5n4)cc3)C(=O)O)C(=C/C=C3/N(CCC(=O)O)c4ccc(S(=O)(=O)O)cc4C3(C)C)/CCC2)=[N+](CCC(=O)O)c2ccc(S(=O)(=O)[O-])cc21 (stereo not shown) [Compound 4, 2-((E)-2-((E)-2-((1-(4-(((2-amino-4-oxo-1,4-dihydropteridin-7-yl)methyl)amino)phenyl)-3-carboxy-1,6-dioxo-10,13-dioxa-2,7-diazapentadecan-15-yl)thio)-3-(2-((E)-1-(2-carboxyethyl)-3,3-dimethyl-5-sulfoindolin-2-ylidene)ethylidene)cyclohex-1-en-1-yl)vinyl)-1-(2-carboxyethyl)-3,3-dimethyl-5-sulfo-3H-indol-1-ium] | – | – | signals were identified in the kidneys and small intestine |
| CC1(C)C(/C=C/C2=C(Cl)C(=C/C=C3/N(CCC(=O)O)c4ccc(S(=O)(=O)O)cc4C3(C)C)/CCC2)=[N+](CCC(=O)O)c2ccc(S(=O)(=O)[O-])cc21 [Compound 1, 3-(2-((E)-2-((E)-3-(2-((E)-1-(2-carboxyethyl)-3,3-dimethyl-5-sulfoindolin-2-ylidene)ethylidene)-2-chlorocyclohex-1-en-1-yl)vinyl)-3,3-dimethyl-5-sulfo-3H-indol-1-ium-1-yl)propanoate] | – | – | signals were higher in the liver and kidneys compared to other organs |
